Earlier results, collected in paper PMC3791449, “Mechanism of amyloid β−protein dimerization determined using single−molecule AFM force spectroscopy” (Scientific Reports, 2013).

Test system: Aβ(13−23) dimer
Conditions: antiparallel β−sheet structures; cited from earlier work

Aβ(13−23): Aβ(13−23) peptide of published MD simulations (HHQKLVFFAED; Amyloid-beta protein 42; UniProt P05067 684-694, looked up, fragment)
dimer stability by MD simulation: high dimer stability
